In patent US7378397B2 (The Provost, Fellows and Scholars of the College of the …, priority 2000, dated 2008):
Where a SMILES comes first, the peptide text is derived from it. [ ]: non-standard residue; d: D form. pGlu = O=C1CC[C@@H](C(=O)O)N1

Columns and labels:
TRH-DE [1] = target: T1, TRH-DE (Sus scrofa, UniProt A0A287AP33); assay: HPLC assay of peptide hydrolysis by TRH-DE (Glp production); format: biochemical, porcine; details: 1 mM peptide incubated with TRH-DE 18 h at 37° C., HPLC
T1 construct: The inventor purified TRH-DE from porcine brain according to purification procedures previously published by Dr. K. Bauer; from tissue; host or cells: porcine brain (TRH-DE); bovine kidney (DPP-IV, gift from Dr. C. H. Williams)
T1 sequence (A0A287AP33 1-1066): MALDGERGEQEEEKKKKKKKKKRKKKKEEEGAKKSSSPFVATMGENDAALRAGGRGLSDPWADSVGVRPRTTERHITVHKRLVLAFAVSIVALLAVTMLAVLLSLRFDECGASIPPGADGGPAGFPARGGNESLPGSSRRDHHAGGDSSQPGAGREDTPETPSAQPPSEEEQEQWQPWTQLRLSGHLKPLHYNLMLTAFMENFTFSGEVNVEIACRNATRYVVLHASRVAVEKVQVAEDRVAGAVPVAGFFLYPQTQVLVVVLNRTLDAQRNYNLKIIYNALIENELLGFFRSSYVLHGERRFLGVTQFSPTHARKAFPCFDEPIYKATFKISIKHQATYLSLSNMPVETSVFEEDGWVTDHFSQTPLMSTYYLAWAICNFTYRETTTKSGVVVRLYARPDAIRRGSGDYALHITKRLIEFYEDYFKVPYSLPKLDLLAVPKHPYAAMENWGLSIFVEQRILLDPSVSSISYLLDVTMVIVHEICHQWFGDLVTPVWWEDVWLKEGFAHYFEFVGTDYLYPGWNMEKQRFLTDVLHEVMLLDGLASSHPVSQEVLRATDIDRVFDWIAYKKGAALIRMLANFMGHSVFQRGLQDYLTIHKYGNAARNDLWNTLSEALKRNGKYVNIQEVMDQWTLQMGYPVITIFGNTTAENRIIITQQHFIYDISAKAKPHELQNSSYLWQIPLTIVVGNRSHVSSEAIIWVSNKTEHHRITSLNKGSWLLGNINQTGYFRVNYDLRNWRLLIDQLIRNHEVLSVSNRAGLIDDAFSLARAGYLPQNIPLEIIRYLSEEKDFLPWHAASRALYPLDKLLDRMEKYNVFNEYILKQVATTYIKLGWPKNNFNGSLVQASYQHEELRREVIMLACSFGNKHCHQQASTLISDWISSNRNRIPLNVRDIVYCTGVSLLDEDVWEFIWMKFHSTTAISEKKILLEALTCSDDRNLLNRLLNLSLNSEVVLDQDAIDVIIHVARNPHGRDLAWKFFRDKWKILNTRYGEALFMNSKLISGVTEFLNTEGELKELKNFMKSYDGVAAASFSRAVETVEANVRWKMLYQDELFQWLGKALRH
How it was run: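 Porcine brain TRH-DE incubated with 1 mM peptide in 20 mM potassium phosphate, pH 7.5, 37 °C: screen with 0.8 μg enzyme for 18 h; rate microassays with 0.8-3.2 μg enzyme for 5 min to 18 h, in triplicate. Reactions stopped with TFA; Glp quantified by C-18 reverse-phase HPLC, UV 206 nm.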

TRH-DE [2] = target: T1, TRH-DE; assay: continuous coupled fluorometric TRH-DE assay (TRHAMC substrate, DPP-IV coupling enzyme); format: biochemical, porcine; details: for Ki: non-linear regression, five TRHAMC concentrations and at least three peptide concentrations, mean±S.D. (n=3)
Protocol: The inventor purified TRH-DE from porcine brain according to purification procedures previously published by Dr. K. Bauer, (Max-Planck-Institut, Hannover, Germany) (1). TRH-DE was purified almost 20,000 fold. […] Dipeptidyl peptidase IV (DPP-IV) (EC 3.4.14.5), purified from bovine kidney (7.7 mg ml^−1, specific activity of 17.5 U mg^−1 with Gly-ProAMC as substrate), was obtained as a gilt from Dr. C. H. Williams (Queen's University Belfast, U.K). (DPP-IV was used as the coupling enzyme used in the fluorometric assays).
One unit (U) of enzyme activity was defined as that amount catalysing the formation of one μmol of product in one minute under the standard conditions employed. All incubations in the assays described below were carried out in 20 mM potassium phosphate buffer, pH 7.5, at 37° C.
Kinetic analysis of peptides that are not hydrolysed by TRH-DE. A recently-developed continuous coupled fluorometric assay (23) was used to investigate the ability of those library peptides that were not hydrolysed by TRH-DE to inhibit TRHAMC degradation by TRH-DE. In this assay, TRHAMC is the substrate and dipeptidyl peptidase IV (DPP-IV) (EC 3.4.14.5) is the coupling enzyme. The reaction sequence is:
The reaction was monitored continuously by measuring the increase in AMC fluorescence. A linear progress curve with no discernible lag period was observed when the reaction was monitored over a period of 10 minutes. Nevertheless, data sampling was not commenced until 100 s from the start of the reaction to ensure measurements were taken after a steady state had been reached (see Ref. 23).
In a preliminary experiment, the peptides were screened for their ability to inhibit TRH-DE activity. The initial rate of TRHAMC hydrolysis by TRH-DE was measured by incubating 5 μM TRHAMC with 1.23 μg DPP-IV and 0.32 μg TRH-DE, both in the absence and presence of each library peptide (1 mM final concentration) under standard assay conditions (23). In each case the percentage inhibition (i%) was calculated using the equation i%=100(1-vi/vo), where vi and vo are the initial velocities in the presence and absence of peptide, respectively.
Since these peptides were poor inhibitors they were not examined further. The Ki values for the remainder of the peptides were determined by measuring their effects on TRHAMC degradation by TRH-DE using the continuous assay. Data were collected in duplicate at five different substrate concentrations and at least three different concentrations of each peptide.
Reversibility and time dependence of the inhibition produced by Glp-Gln-ProNH2, Glp-Asn-ProNH2 and Glp-Asn-ProAMC were examined by initially preincubating TRH-DE with each peptide at 37° C. for various periods up to 75 min. To investigate time dependence, the enzyme-peptide solution was subsequently added to the reaction mixture containing TRHAMC, DPP-IV, buffer and peptide, and TRH-DE activity was measured using the continuous assay. The final concentration of Glp-Gln-ProNH2, Glp-Asn-ProNH2 and Glp-Asn-ProAMC used was 400, 160 and 1 μM, respectively. […] TRH-DE activity was not affected by pre-incubation at 37° C.
Fluorescence measurements were made using a Perkin Elmer LS 50B Luminescence Spectrometer fitted with a thernostated cell holder. Wavelengths for excitation and emission were set at 370 nm and 440 nm, respectively, with slit widths of 10 nm and 5 nm, respectively.

hydrolysis by TRH-DE (release of Glp) (TRH-DE [1]): No detectable Glp
mode of inhibition of TRH-DE (TRH-DE [2]; continuous assay, Lineweaver-Burk plot): simple competitive inhibitors
Ki (TRH-DE [2]): 17.5 µM
Ki (TRH-DE [2]; listed as Glp-Asn-Pro-NH2): 17.5 µM
inhibition at 1000 µM (TRH-DE [2]; peptide 1 mM, 5 μM TRHAMC substrate): 97%
reversibility and time dependence of inhibition (TRH-DE [2]; preincubation with TRH-DE up to 75 min at 37° C., Glp-Gln-ProNH2 400, Glp-Asn-ProNH2 160, Glp-Asn-ProAMC 1 μM): fully reversible and not time-dependent
SMILES: NC(=O)C[C@H](NC(=O)[C@@H]1CCC(=O)N1)C(=O)N1CCC[C@H]1C(N)=O [Glp-Asn-ProNH2, pyroglutamyl-asparaginyl-prolineamide] ([pGlu]-Asn-Pro-NH2)
